# Assay results taken from PMC12257073 (Cancer Research Communications, 2025).
# Test: Adverse events (treatment-related and all-cause) and dose-limiting toxicities, NCI CTCAE version 4.0
# Details: all-cause adverse events
# [1] = Group 1, Skin and subcutaneous tissue disorders
# Method: The phase 1b portion of the study used a standard 3 + 3 dose-escalation design with a starting dose level 1 (DL1) of 37 mg oral daily TP-0903 (Supplementary Table S2) based on experience with 50 mg oral daily as a single agent in patients with solid tumors ([25]). Dose-limiting toxicities (DLT) were evaluated to establish the dose brought forward for an expansion cohort (phase 2). Seven patients were enrolled in the phase 1b study, which was completed in January 2021 with the decision to move forward with an expansion cohort of 37 mg oral daily. Across the phase 1b and phase 2 studies, 15 patients were enrolled and started on 37 mg TP-0903 oral daily on days 1 to 21 (group 1). […] One additional patient was enrolled at this time but was inadvertently started on 25 mg TP-0903 oral daily on days 1 to 21. […] In May 2021, an amendment was approved to allow enrollment of a new group 2 at 25mg oral daily on days 1 to 21 of TP-0903 (DL-1) in stage 2 of the phase 2 study.
# Clinical response was assessed according to the modified 2017 European LeukemiaNet AML criteria ([26]). The primary endpoint was achievement of CR within six cycles of therapy. Secondary endpoints included toxicity, duration of response, OS, and the proportion of eligible patients who effectively transitioned to allogeneic stem cell transplantation. Exploratory endpoints included pharmacokinetics (PK), correlative genetic, and biochemical data; correlations between morphologic remission, spectral flow cytometry, and mutational remission; and duration of remission or survival. […] Adverse events (AE) were graded according to the NCI Common Terminology Criteria for Adverse Events version 4.0 ([27]).
smiles,measurement,setting,value
"CN1CCN(Cc2ccc(Nc3ncc(Cl)c(Nc4ccccc4S(=O)(=O)N(C)C)n3)cc2)CC1.O=C(O)C(O)C(O)C(=O)O.O=C(O)C(O)C(O)C(=O)O [TP-0903, 2-(5-chloro-2-(4-((4-methylpiperazin-1-yl)methyl)phenylamino)pyrimidin-4-yl)amino-N,N-dimethylbenzene-1-sulfonamide di-tartrate salt]","Atrial fibrillation with RVR, All","Group 1, Missing Categories",0 (0)
same,"Atrial fibrillation with RVR, Grade 1 2","Group 1, Missing Categories",0 (0)
same,"Atrial fibrillation with RVR, Grade 3+","Group 1, Missing Categories",0 (0)
same,"COPD exacerbation, All","Group 1, Missing Categories",1 (6.7)
same,"COPD exacerbation, Grade 1 2","Group 1, Missing Categories",1 (6.7)
same,"COPD exacerbation, Grade 3+","Group 1, Missing Categories",0 (0)
same,"Chest pain (non-cardiac), All","Group 1, Missing Categories",0 (0)
same,"Chest pain (non-cardiac), Grade 1 2","Group 1, Missing Categories",0 (0)
same,"Chest pain (non-cardiac), Grade 3+","Group 1, Missing Categories",0 (0)
same,"Death, NOS, All","Group 1, Missing Categories",1 (6.7)
same,"Death, NOS, Grade 1 2","Group 1, Missing Categories",0 (0)
same,"Death, NOS, Grade 3+","Group 1, Missing Categories",1 (6.7)
same,"Diarrhea (intermittent), All","Group 1, Missing Categories",0 (0)
same,"Diarrhea (intermittent), Grade 1 2","Group 1, Missing Categories",0 (0)
same,"Diarrhea (intermittent), Grade 3+","Group 1, Missing Categories",0 (0)
same,"Hand-Foot Syndrome, All","Group 1, Missing Categories",1 (6.7)
same,"Hand-Foot Syndrome, Grade 1 2","Group 1, Missing Categories",1 (6.7)
same,"Hand-Foot Syndrome, Grade 3+","Group 1, Missing Categories",0 (0)
same,"Hip Pain, All","Group 1, Missing Categories",1 (6.7)
same,"Hip Pain, Grade 1 2","Group 1, Missing Categories",1 (6.7)
same,"Hip Pain, Grade 3+","Group 1, Missing Categories",0 (0)
same,"Hypokalemia (intermittent), All","Group 1, Missing Categories",0 (0)
same,"Hypokalemia (intermittent), Grade 1 2","Group 1, Missing Categories",0 (0)
same,"Hypokalemia (intermittent), Grade 3+","Group 1, Missing Categories",0 (0)
same,"Hypotension (intermittent), All","Group 1, Missing Categories",0 (0)
same,"Hypotension (intermittent), Grade 1 2","Group 1, Missing Categories",0 (0)
same,"Hypotension (intermittent), Grade 3+","Group 1, Missing Categories",0 (0)
same,"INR - Increased, All","Group 1, Missing Categories",1 (6.7)
same,"INR - Increased, Grade 1 2","Group 1, Missing Categories",1 (6.7)
same,"INR - Increased, Grade 3+","Group 1, Missing Categories",0 (0)
same,"Inflammation (bilateral knee), All","Group 1, Missing Categories",0 (0)
same,"Inflammation (bilateral knee), Grade 1 2","Group 1, Missing Categories",0 (0)
same,"Inflammation (bilateral knee), Grade 3+","Group 1, Missing Categories",0 (0)
same,"Itching (intermittent), All","Group 1, Missing Categories",0 (0)
same,"Itching (intermittent), Grade 1 2","Group 1, Missing Categories",0 (0)
same,"Itching (intermittent), Grade 3+","Group 1, Missing Categories",0 (0)
same,"Microvascular ischemic disease, All","Group 1, Missing Categories",0 (0)
same,"Microvascular ischemic disease, Grade 1 2","Group 1, Missing Categories",0 (0)
same,"Microvascular ischemic disease, Grade 3+","Group 1, Missing Categories",0 (0)
same,"Pain (leg), All","Group 1, Missing Categories",0 (0)
same,"Pain (leg), Grade 1 2","Group 1, Missing Categories",0 (0)
same,"Pain (leg), Grade 3+","Group 1, Missing Categories",0 (0)
same,"Retinal Detachment, All","Group 1, Missing Categories",1 (6.7)
same,"Retinal Detachment, Grade 1 2","Group 1, Missing Categories",1 (6.7)
same,"Retinal Detachment, Grade 3+","Group 1, Missing Categories",0 (0)
same,"Steroid-induced hyperglycemia, All","Group 1, Missing Categories",0 (0)
same,"Steroid-induced hyperglycemia, Grade 1 2","Group 1, Missing Categories",0 (0)
same,"Steroid-induced hyperglycemia, Grade 3+","Group 1, Missing Categories",0 (0)
same,"Symptomatic anemia, All","Group 1, Missing Categories",0 (0)
same,"Symptomatic anemia, Grade 1 2","Group 1, Missing Categories",0 (0)
same,"Symptomatic anemia, Grade 3+","Group 1, Missing Categories",0 (0)
same,"lung fullness, All","Group 1, Missing Categories",1 (6.7)
same,"lung fullness, Grade 1 2","Group 1, Missing Categories",1 (6.7)
same,"lung fullness, Grade 3+","Group 1, Missing Categories",0 (0)
same,"neuropathy (BLE), All","Group 1, Missing Categories",0 (0)
same,"neuropathy (BLE), Grade 1 2","Group 1, Missing Categories",0 (0)
same,"neuropathy (BLE), Grade 3+","Group 1, Missing Categories",0 (0)
same,"pericarditis (intermittent), All","Group 1, Missing Categories",0 (0)
same,"pericarditis (intermittent), Grade 1 2","Group 1, Missing Categories",0 (0)
same,"pericarditis (intermittent), Grade 3+","Group 1, Missing Categories",0 (0)
same,"Dry skin, All",[1],1 (6.7)
same,"Dry skin, Grade 1 2",[1],1 (6.7)
same,"Dry skin, Grade 3+",[1],0 (0)
same,"Ecchymosis, All",[1],1 (6.7)
same,"Ecchymosis, Grade 1 2",[1],1 (6.7)
same,"Ecchymosis, Grade 3+",[1],0 (0)
same,"Erythema nodosum, All",[1],0 (0)
same,"Erythema nodosum, Grade 1 2",[1],0 (0)
same,"Erythema nodosum, Grade 3+",[1],0 (0)
same,"Erythema, All",[1],1 (6.7)
same,"Erythema, Grade 1 2",[1],1 (6.7)
same,"Erythema, Grade 3+",[1],0 (0)
same,"Hyperhidrosis, All",[1],0 (0)
same,"Hyperhidrosis, Grade 1 2",[1],0 (0)
same,"Hyperhidrosis, Grade 3+",[1],0 (0)
same,"Nail discolouration, All",[1],1 (6.7)
same,"Nail discolouration, Grade 1 2",[1],1 (6.7)
same,"Nail discolouration, Grade 3+",[1],0 (0)
same,"Petechiae, All",[1],0 (0)
same,"Petechiae, Grade 1 2",[1],0 (0)
same,"Petechiae, Grade 3+",[1],0 (0)
same,"Photosensitivity reaction, All",[1],1 (6.7)
same,"Photosensitivity reaction, Grade 1 2",[1],1 (6.7)
same,"Photosensitivity reaction, Grade 3+",[1],0 (0)
same,"Pruritus, All",[1],1 (6.7)
same,"Pruritus, Grade 1 2",[1],1 (6.7)
same,"Pruritus, Grade 3+",[1],0 (0)
same,"Rash papular, All",[1],0 (0)
same,"Rash papular, Grade 1 2",[1],0 (0)
same,"Rash papular, Grade 3+",[1],0 (0)
same,"Rash, All",[1],1 (6.7)
same,"Rash, Grade 1 2",[1],1 (6.7)
same,"Rash, Grade 3+",[1],0 (0)
same,"Scab, All",[1],0 (0)
same,"Scab, Grade 1 2",[1],0 (0)
same,"Scab, Grade 3+",[1],0 (0)
same,"Skin disorder, All",[1],1 (6.7)
same,"Skin disorder, Grade 1 2",[1],1 (6.7)
same,"Skin disorder, Grade 3+",[1],0 (0)
same,"Skin lesion, All",[1],0 (0)
same,"Skin lesion, Grade 1 2",[1],0 (0)
same,"Skin lesion, Grade 3+",[1],0 (0)
same,"Swelling face, All",[1],0 (0)
same,"Swelling face, Grade 1 2",[1],0 (0)
same,"Swelling face, Grade 3+",[1],0 (0)
same,"Hypertension, All","Group 1, Vascular disorders",1 (6.7)
same,"Hypertension, Grade 1 2","Group 1, Vascular disorders",0 (0)
same,"Hypertension, Grade 3+","Group 1, Vascular disorders",1 (6.7)
same,"Hypotension, All","Group 1, Vascular disorders",3 (20)
same,"Hypotension, Grade 1 2","Group 1, Vascular disorders",2 (13.3)
same,"Hypotension, Grade 3+","Group 1, Vascular disorders",1 (6.7)
same,"Lymphoedema, All","Group 1, Vascular disorders",0 (0)
same,"Lymphoedema, Grade 1 2","Group 1, Vascular disorders",0 (0)
same,"Lymphoedema, Grade 3+","Group 1, Vascular disorders",0 (0)
same,"Peripheral venous disease, All","Group 1, Vascular disorders",0 (0)
same,"Peripheral venous disease, Grade 1 2","Group 1, Vascular disorders",0 (0)
same,"Peripheral venous disease, Grade 3+","Group 1, Vascular disorders",0 (0)
same,"Atrial fibrillation with RVR, All","Group 2, Missing Categories",1 (8.3)
same,"Atrial fibrillation with RVR, Grade 1 2","Group 2, Missing Categories",1 (8.3)
same,"Atrial fibrillation with RVR, Grade 3+","Group 2, Missing Categories",0 (0)
same,"COPD exacerbation, All","Group 2, Missing Categories",0 (0)
same,"COPD exacerbation, Grade 1 2","Group 2, Missing Categories",0 (0)
same,"COPD exacerbation, Grade 3+","Group 2, Missing Categories",0 (0)
same,"Chest pain (non-cardiac), All","Group 2, Missing Categories",1 (8.3)
same,"Chest pain (non-cardiac), Grade 1 2","Group 2, Missing Categories",1 (8.3)
same,"Chest pain (non-cardiac), Grade 3+","Group 2, Missing Categories",0 (0)
same,"Death, NOS, All","Group 2, Missing Categories",0 (0)
same,"Death, NOS, Grade 1 2","Group 2, Missing Categories",0 (0)
same,"Death, NOS, Grade 3+","Group 2, Missing Categories",0 (0)
same,"Diarrhea (intermittent), All","Group 2, Missing Categories",1 (8.3)
same,"Diarrhea (intermittent), Grade 1 2","Group 2, Missing Categories",1 (8.3)
same,"Diarrhea (intermittent), Grade 3+","Group 2, Missing Categories",0 (0)
same,"Hand-Foot Syndrome, All","Group 2, Missing Categories",0 (0)
same,"Hand-Foot Syndrome, Grade 1 2","Group 2, Missing Categories",0 (0)
same,"Hand-Foot Syndrome, Grade 3+","Group 2, Missing Categories",0 (0)
same,"Hip Pain, All","Group 2, Missing Categories",0 (0)
same,"Hip Pain, Grade 1 2","Group 2, Missing Categories",0 (0)
same,"Hip Pain, Grade 3+","Group 2, Missing Categories",0 (0)
same,"Hypokalemia (intermittent), All","Group 2, Missing Categories",1 (8.3)
same,"Hypokalemia (intermittent), Grade 1 2","Group 2, Missing Categories",1 (8.3)
same,"Hypokalemia (intermittent), Grade 3+","Group 2, Missing Categories",0 (0)
